# Where “and” joins values, the source holds several entries; their conditions need not be identical. Equal values may be shown once.
# Tests used:
# ES-D3 cells = experiment: ES-D3 cell cytotoxicity (WST-1 viability) assay of the mEST; assay type: cell-based, mouse; settings: 1-day and 5-day cytotoxicity, ES-D3 cells
# Procedure: The viability of the ES-D3 cells following 1-day and 5-day exposure to the test compounds was measured with the WST-1 assay. To this end, 100 µL cell suspension was seeded in the inner 60 wells of 96-well plates at a concentration of 2 × 10^5 cells/ml for 1-day exposure and 10^4 cells/ml for 5-day exposure and incubated at 37 °C with 5% CO2 for 24 h. After 24 h, 100 µL exposure medium with 0.25% DMSO and the required concentration of the test compounds, solvent control, and positive control were added to the cells in triplicate. The plates were incubated at 37 °C with 5% CO2 for 1 day or 5 days until measurement. After the exposure period, 20 µL of the cell proliferation reagent WST-1 were added to each well that contained cells and the cells were incubated for 3 h at 37 °C with 5% CO2. The absorbance of each plate was measured at 440 nm and 620 nm with a SpectraMax iD3 (San Jose, USA).
# (§1) The concentration–response data for the test compounds in the mEST were presented in three curves including curves for 1-day cytotoxicity, 5-day cytotoxicity, and 10-day differentiation assays. The obtained curves were fitted using the inhibition equation log (inhibitor) vs response (three parameters) option using GraphPad Prism software 5.0 (California, USA).
# [1] = test system: ES-D3 cells (differentiation into contracting cardiomyocytes); experiment: ES-D3 cell differentiation assay of the mouse embryonic stem cell test (mEST); assay type: cell-based
# Procedure: The developmental toxicity of the test compounds was assessed by the inhibitory effect on the differentiation of cells of the ES-D3 cell line into contracting cardiomyocytes. The assay was performed essentially as previously described (Kamelia et al. [2020]). The cells were cultured on the lid of a 96-well plate in 45 hanging drops (volume 20 µL/drop) at a concentration of 37,500 cells/ml. The 96 wells were filled with 250 µL PBS to maintain the humidity. Sterile Eppendorf lids were placed at the corners of the 96-well plate to prevent the hanging drops from contacting the 96-well plate. The plates were sealed with micropore tape and incubated at 37 °C with 5% CO2 in a humidified atmosphere for 72 h. After 72 h, 5 ml exposure medium was prepared for each concentration of each test compound with 0.25% DMSO in a 60 × 15 mm petri dish. The formed embryonic bodies (EBs) in the hanging drops on the lid of the 96-well plate were washed off with exposure medium and collected in the petri dish. The Petri dish was subsequently incubated at 37 °C with 5% CO2 in a humidified atmosphere for 48 h. After 48 h, the EBs were transferred to a 24-well plate filled with 1 ml exposure medium per well. Each well contained 1 EB. The 24-well plates were incubated at 37 °C with 5% CO2 in a humidified atmosphere for 120 h. The number of EBs with contracting cardiomyocytes and the undifferentiated EBs were counted under a microscope. In the solvent (DMSO) control, the presence of more than 21 EBs with contracting cardiomyocytes out of 24 EBs indicates a valid assay. In each experiment, 0.5 µM (0.065 µg/ml) 5-FU was used as a positive control. The result of the differentiation assay is expressed as the fraction of differentiated EBs of the total number of EBs.
# as §1
# [2] = Glucuronidation of 3-OH-8-MBaP in incubations with rat liver S9; assay type: in vitro ADME; settings: rat, pooled rat liver S9, pH 7.4, rat liver S9, UDPGA
# Procedure: (§2) The conjugation of 3-OH-8-MBaP with glucuronic acid was studied in incubations with rat liver S9 in vitro. The incubation time and S9 protein concentration were optimized to ascertain linearity of glucuronidation with time and the amount of S9 protein. The incubation was performed with a 200 µL mixture in glass vials, and consisted of (final concentrations) […] Tris buffer (pH 7.4), 0.1 mg/ml pooled rat liver S9, 3 mM UDPGA, 5 mM MgCl2, 0.025 mg/ml alamethicin, and 0–100 µM 3-OH-8-MBaP. No metabolites were formed in control incubations without either rat liver S9 or co-factor UDPGA. The final concentration of substrate vehicle (DMSO) in the incubation mixture was 1% (v/v). The incubation mixtures without substrate were pre-incubated at 37 °C for 1 min. The reaction was initiated by adding substrate to the incubation mixtures that were subsequently incubated at 37 °C for 20 min, after which the reaction was terminated by adding 100 µL ice-cold acetonitrile. The incubation mixture was subsequently centrifuged at 3717g at 4 °C for 5 min. The supernatant was collected for ultra-performance liquid chromatography (UPLC) analysis.
# (§3) An Acquity UPLC system with a photodiode array (PDA) detector was used to quantify the metabolites formed in the glucuronidation and sulfation incubations. The supernatants of the incubation samples were injected onto an Acquity UPLC BEH® C18 column ([…], 1.7 µm, Waters, Milford, MA). The total running time per sample was 22 min with a flow rate of 0.6 ml/min. The temperature of column and auto sampler was 40 °C and 10 °C, respectively. The injection volume was 3.5 µL and the detection wavelength ranged from 190 to 400 nm. Two eluents were used including A (nanopure with 0.1% (v/v) TFA) and B (acetonitrile with 0.1% (v/v) TFA). The gradient elution started from 90% A and 10% B applied from 0.0 min to 0.5 min, which was changed to 10% A and 90% B from 0.5 to 15.5 min and then kept at 10% A and 90% B from 15.5 min to 18.5 min, and changed back to 90% A and 10% B from 18.5 to 22.0 min. Metabolites were quantified as previously described in our study on microsomal metabolism of BaP and several of its methyl substituted analogs (Wang et al [2022]).
# (§4) The concentration of the glucuronidated and sulfated metabolites was further used to calculate the velocity of the enzymatic reaction expressed in nmol/min/mg S9 protein. The curve reflecting the substrate (3-OH-8-MBaP) concentration-dependent velocity of the metabolite formation was fitted by the Michaelis–Menten equation using GraphPad Prism 5 (California, USA). The kinetic constants derived included the Km (µM) and Vmax (nmol/min/mg S9 protein).
# (§5) 3-OH-8-MBaP was subsequently modeled to be conjugated by glucuronidation and sulfation in the liver. The kinetic constants for these conjugation reactions were determined in incubation experiments described in Sect. […] The scaling factors from rat liver microsomes and rat liver S9 to the whole liver were 45 mg microsomal protein/g liver and 125 mg S9 protein/g liver, respectively (Houston and Galetin [2008]).
# rat liver S9 = experiment: as above; assay type: in vitro ADME
# Procedure: as §2, §3, §4, §5
structure (smiles),measurement,setting,value
"Cc1ccc2c(c1)cc1ccc3c(O)ccc4ccc2c1c43 [3-OH-8-MBaP, 3-Hydroxy-8-methyl-benzo[a]pyrene]",Cytotoxicity accompanying the inhibition of differentiation,ES-D3 cells,without accompanying cytotoxicity
same,IC50,"[1]; Mus musculus, Cardiomyocyte, 240 h, read-out: IC50 for inhibition of differentiation of ES-D3 cells into beating cardiomyocytes",1400 nM
same,Fold difference between IC50 of 3-OH-8-MBaP and of 3-OHBaP (3-OH-8-MBaP lower),[1]; differentiation assay of the mEST,1.1 fold
same,Km at 20 min,[2],16 µM
same,Km,"rat liver S9; rat liver S9, UDPGA",15.6 µM
same,"Vmax, glucuronidation of 3-OH-8-MBaP","rat liver S9; rat liver S9, UDPGA",6.92 nmol/min/mg S9 protein and 6.92^e nmol/min/mg S9 protein
same,"Scaled Vmax, glucuronidation of 3-OH-8-MBaP","rat liver S9; scaled to whole liver, liver weight 9.1 g",470 µmol/h/liver
same,"Scaled Vmax, glucuronidation of 3-OH-8-MBaP",rat liver S9; scaled with 125 mg S9 protein/g liver,51.9 µmol/h/g liver

# Reference: paper PMC12454603 (Archives of Toxicology, 2025)
